Laboratory results published in patent US3940248A, “Method for inhibiting corrosion of metal” (Otsuka Kagaku Yakuhin Kabushiki Kaisha, priority 1972, dated 1976).

Legend:
male Wistar rats = settings: sodium nitrite, as determined in rats; cited from earlier work
in vivo = settings: rat, po
Description: The LD50 test was conducted using male Wistar rats after 24 hours' fasting weighing 150 g, each 10 rats as a group.

Row | Structure (SMILES) | LD50 (male Wistar rats) | LD50 (in vivo)
1 | O=NO [Sodium nitrite] | 85 mg/kg | –
2 | Cc1cc(O)c2nncn2n1 | – | ~3750 mg/kg
